The values below come from US8753680B2, “Capsule for the prevention of cardiovascular diseases” (Ferrer Internacional S.A., priority 2008, dated 2014).

The conditions of series [1]: general statement, no test described; cited from earlier work.
Series [2] is described as follows: Degradation of acetylsalicylic acid by moisture. The conditions noted are these: found in the course of the investigation. In kind it is physicochemical. The text has this: Subsequent acetylsalicylic acid sublimation occurs on the surface of ACE inhibitor tablets thus inducing its chemical degradation. A partially hydrolysed polyvinyl alcohol coating film (Opadry AMB™, Colorcon) has been found useful for protecting both acetylsalicylic acid and the ACE inhibitor tablets because of its moisture barrier properties. HMG-CoA reductase inhibitor tablets in the present invention may be coated with a coloured film, such as a hydroxypropylmethyl cellulose comprising film (Opadry Orange™, Colorcon) to hide darkened appearance. Opadry AMB coatings also may comprise one or more than one pigment.

On to `CCC[C@H](N[C@@H](C)C(=O)N1[C@H](C(=O)O)C[C@@H]2CCCC[C@@H]21)C(=O)OCC` [perindopril, 1-ethylic ester of (2S,3aS,7aS)-1-[(S)-N-[(S)-1-carboxybutyl]alanyl]hexahydro-2-indolinecarboxylic acid], for which the Solubility in water result in series [1] was “freely soluble in water”. As for `NCCCC[C@H](N[C@@H](CCc1ccccc1)C(=O)O)C(=O)N1CCC[C@H]1C(=O)O` [lisinopril, 1-[N^2-[(S)-1-carboxy-3-phenylpropyl]-L-lysyl]-L-proline], the Solubility in water entry in series [1] is “one of the most soluble in water”. On to `CC(=O)Oc1ccccc1C(=O)O` [acetylsalicylic acid], for which the “Degradation due to moisture” value in series [2] is listed as “degrades to salicylic acid due to moisture”.
